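Tested at 5 concentrations; 48 h exposure; 96-well plates; endpoints linearly interpolated, else capped at highest concentration. At the GI50, growth is halved.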 Active and inactive are the calls of the source. No stated cut-off is given here; in the data, active = GI50 up to about 1.1 µM and inactive = higher.
What was measured:
Test in all cases: NCI tumour cell line growth inhibition, 48 h
CCRF-CEM = test system: CCRF-CEM
SK-OV-3 = test system: SK-OV-3
KM12 = test system: KM12
UO-31 = test system: UO-31
HT-29 = test system: HT-29
DMS-273 = test system: DMS-273
EKVX = test system: EKVX
MOLT-4 = test system: MOLT-4
OVCAR-4 = test system: OVCAR-4
M14 = test system: M14
COLO 205 = test system: COLO 205
OVCAR-8 = test system: OVCAR-8
786-0 = test system: 786-0
RPMI-8226 = test system: RPMI-8226
UACC-62 = test system: UACC-62
NCI-H226 = test system: NCI-H226
PC-3 = test system: PC-3
Hs-578T = test system: Hs-578T
T47D = test system: T47D
RXF 393 = test system: RXF 393

Measured: GI50

CC12CC3C(CC1SCC(=O)O2)C3(C)C (stereo not drawn)
inactive: CCRF-CEM > 100 µM | SK-OV-3 > 100 µM | KM12 > 100 µM | UO-31 > 100 µM | HT-29 > 100 µM | DMS-273 > 100 µM | EKVX > 100 µM | MOLT-4 > 100 µM | OVCAR-4 > 100 µM | M14 > 100 µM | COLO 205 > 100 µM | OVCAR-8 > 100 µM | 786-0 > 100 µM | RPMI-8226 > 100 µM

O=C(CCc1n[nH]c(=S)o1)Nc1cc(Cl)ccc1Cl
inactive: UACC-62 > 100 µM | CCRF-CEM 33.8 µM | SK-OV-3 > 100 µM | KM12 > 100 µM | UO-31 > 100 µM | HT-29 52.8 µM | DMS-273 19.1 µM | EKVX > 100 µM | MOLT-4 > 100 µM | NCI-H226 > 100 µM | OVCAR-4 > 100 µM | M14 > 100 µM | COLO 205 > 100 µM | OVCAR-8 > 100 µM | 786-0 29.6 µM | RPMI-8226 19.1 µM

O=C(N/C(=C\c1cccc([N+](=O)[O-])c1)c1nc2ccccc2[nH]1)c1ccccc1
inactive: UACC-62 88.1 µM | CCRF-CEM 34.4 µM | SK-OV-3 > 100 µM | KM12 69 µM | UO-31 16.6 µM | HT-29 28.9 µM | DMS-273 69.2 µM | EKVX > 100 µM | MOLT-4 32.9 µM | NCI-H226 51.6 µM | OVCAR-4 > 100 µM | M14 66.8 µM | COLO 205 93.1 µM | OVCAR-8 30.3 µM | 786-0 55.2 µM | RPMI-8226 40.8 µM

COc1c(Br)cc(Br)c(OC)c1-c1ccc[nH]1
inactive: UACC-62 56.1 µM | CCRF-CEM 78.9 µM | SK-OV-3 > 100 µM | KM12 > 100 µM | UO-31 43.3 µM | HT-29 38.8 µM | DMS-273 87.9 µM | EKVX > 100 µM | MOLT-4 46.8 µM | NCI-H226 43.9 µM | OVCAR-4 22.1 µM | M14 75.7 µM | COLO 205 > 100 µM | OVCAR-8 > 100 µM | 786-0 > 100 µM | RPMI-8226 80.4 µM

CN/N=C(/C=C/c1ccccc1)C(C)C
inactive: UACC-62 > 100 µM | PC-3 > 100 µM | CCRF-CEM > 100 µM | SK-OV-3 > 100 µM | Hs-578T > 100 µM | KM12 > 100 µM | UO-31 > 100 µM | HT-29 > 100 µM | EKVX > 100 µM | MOLT-4 > 100 µM | T47D 86.3 µM | NCI-H226 > 100 µM | OVCAR-4 > 100 µM | M14 > 100 µM | COLO 205 > 100 µM | OVCAR-8 > 100 µM | 786-0 > 100 µM | RXF 393 > 100 µM | RPMI-8226 > 100 µM

CCOC(=O)CCC(C(=O)OCC)n1nnc2cc(Nc3c(C)[n+]([O-])c4ccc(Cl)cc4[n+]3[O-])ccc21 (stereo not drawn)
inactive: UACC-62 63.5 µM | PC-3 > 100 µM | CCRF-CEM 39.4 µM | SK-OV-3 > 100 µM | Hs-578T > 100 µM | KM12 > 100 µM | UO-31 65.5 µM | HT-29 67.8 µM | EKVX 23.2 µM | MOLT-4 44.2 µM | T47D 39.9 µM | NCI-H226 26.9 µM | OVCAR-4 79.8 µM | M14 > 100 µM | COLO 205 44.8 µM | OVCAR-8 > 100 µM | 786-0 98.4 µM | RXF 393 57.9 µM | RPMI-8226 47.2 µM

COc1cc(/N=N/N(C)C)c(C(C)c2c3cc(OC)c(OC)cc3cc[n+]2C)cc1OC (stereo not drawn)
inactive: UACC-62 25.1 µM | PC-3 38.5 µM | CCRF-CEM 37.3 µM | SK-OV-3 > 100 µM | Hs-578T 63.5 µM | KM12 14.3 µM | UO-31 > 100 µM | HT-29 35.4 µM | EKVX > 100 µM | MOLT-4 56.1 µM | T47D 23.4 µM | NCI-H226 78.5 µM | OVCAR-4 51.9 µM | M14 86.3 µM | COLO 205 14.8 µM | OVCAR-8 39.1 µM | 786-0 51.8 µM | RXF 393 17.6 µM | RPMI-8226 7.76 µM

Cc1ccc(O)c(Cc2nc3ccccc3nc2-c2cccc(Br)c2)c1
inactive: UACC-62 > 100 µM | PC-3 > 100 µM | CCRF-CEM 28.4 µM | SK-OV-3 > 100 µM | Hs-578T 12.5 µM | KM12 > 100 µM | UO-31 89.1 µM | HT-29 > 100 µM | EKVX > 100 µM | MOLT-4 25.2 µM | T47D > 100 µM | NCI-H226 > 100 µM | OVCAR-4 > 100 µM | M14 > 100 µM | COLO 205 > 100 µM | OVCAR-8 > 100 µM | 786-0 57 µM | RXF 393 > 100 µM | RPMI-8226 47.3 µM
